Data from patent US20260167629A1, “NOVEL INDAZOLE DERIVATIVE OR PHARMACEUTICALLY ACCEPTABLE SALT THEREOF, AND USE THEREOF” (KOREA UNIVERSITY RESEARCH AND BUSINESS FOUNDATION, priority 2022, published 2026).

Key:
[1] = tested on: JIMT-1 breast cancer cell line xenograft; experiment: Tumor growth in xenograft mouse model transplanted with JIMT-1; assay type: in vivo, Balb/c nude mice; settings: intraperitoneally, 30 mg/kg compound 18c or 20 mg/kg compound 11k; for tumor volume / tumor weight: compared to the control group
Method: This experiment was performed in an in vivo environment using a xenograft mouse model transplanted with the JIMT-1 breast cancer cell line.
(§1) 6-week-old mice (Balb/c nude mice) were purchased and raised in an environment where they could freely access food and water. The mice were acclimated for more than 7 days, and then were transplanted with tumor cells. Tumor cells were injected subcutaneously into the mammary gland tissue of JIMT-1 breast cancer cells at a density of 3×10^6 cells/mL per individual, and when the tumor reached a size of 50 to 100 mm^3, the indazole derivative of the present disclosure was administered intraperitoneally, and the tumor growth was measured. The experimental groups were treated with either 30 mg/kg of compound 18c (formula 1-16) or 20 mg/kg of compound 11k (formula 1-7), and tumor volume, tumor weight, body weight, and the like were measured every 3 to 4 days from the time of administration until the end of the study.

[2] = Toxicity in JIMT-1 xenograft mice (body weight, H&E of liver, kidney, lung, AST, ALT, BUN); assay type: in vivo, Balb/c nude mice; settings: intraperitoneally, 30 mg/kg compound 18c or 20 mg/kg compound 11k
Method: as §1
To determine whether the treatment with the indazole derivatives of the present disclosure would affect normal organs, a toxicity analysis was performed.
The mouse model was sacrificed. The liver, kidney, and lung tissues were fixed in 4% paraformaldehyde for 24 hours, washed in PBS buffer, and then embedded in paraffin. Tissue samples were sectioned and stained with H&E (hematoxylin & eosin). […]

[3] = tested on: JIMT-1 breast cancer cell line; experiment: Flow cytometry DNA content (PI), cell cycle arrest and cell death, JIMT-1; assay type: cell-based; settings: JIMT-1, 5 and 10 μM, 72 hours, flow cytometer
Method: (§2) The degree of cancer cell death by the indazole derivative of the present disclosure was measured by analyzing DNA content using a flow cytometer. Cells were treated with compound 18c (formula 1-16) and compound 11k (formula 1-7) at concentrations of 0 (DMSO), 5, and 10 μM for 72 hours, and then the cells were harvested. Thereafter, the cells were fixed with 95% ethanol containing 0.5% Tween-20 for 24 hours, and stained with propidium iodide (PI, 50 μg/mL) and RNase (50 μg/mL) for 30 minutes. Afterwards, the degree of cancer cell death was analyzed using a flow cytometer.
(§3) In general, the cell cycle is divided into G1 (cell growth phase)—S(cell replication phase)—G2/M (cell division phase) according to the content of intracellular DNA. […] The results of this cell death within the cell cycle are manifested by the Sub-G1 region, and the percentage of Sub-G1 induced by the indazole derivative of the present disclosure is shown numerically in FIGS. 5B and 6B.

BT474 cell line = experiment: MTS cell viability assay in BT474 cell line; assay type: cell-based; settings: Homo sapiens, BT-474, BT474, 72 hours
Method: Specifically, cells were attached to 96 well plates for 24 hours, and then treated with the indazole derivatives for 72 hours. Thereafter, the cells were chromogenized with MTS for 4 hours, and the absorbance was measured at 490 nm using a Spectramax Plus384 microplate analyzer.
HER2 positive breast cancer (HER2+BC) cell lines, BT474 (cell seeding numbers: 2.4 (BT474)×10^4 cells/wells (confluency≥50%)) sensitive to trastuzumab and JIMT-1 (cell seeding numbers: 1.0 (JIMT-1)×10^4 cells/wells (confluency>30%)) resistant to trastuzumab were used in the experiment.
In this case, the cell lines were treated with the benzopyran derivative at a concentration of 10 μM for 72 hours and the cell lines were treated with the indazole derivative at a concentration of 10 μM for 72 hours, and then the cell viability was measured.

[4] = tested on: cleaved caspase-3, cleaved caspase-7, PARP in JIMT-1 cell line; experiment: Western blotting of apoptosis-related proteins, JIMT-1; assay type: cell-based; settings: JIMT-1, 10 μM, 72 hours; for amounts of cleaved caspase-3 and cleaved caspase-7: compared to the control group
Method: To investigate the mechanism of cell death by compound 18c (formula 1-16) and compound 11k (formula 1-7), the activation of apoptosis-related factor caspase family members was determined through western blotting.
To perform western blotting, BT-474 and JIMT-1 cell lines were treated with control (DMSO), compound 18c, and compound 11k at concentrations of 10 μM each for 72 hours, and then lysed in lysis buffer (30 mM NaCl, 0.5% Triton X-100, 50 mM Tris-HCl; pH 7.4) containing phosphatase and protease inhibitors. The proteins present in the supernatant were harvested. The protein concentration was measured using a Bradford protein assay kit, and 30 μg of protein was taken equally from each experimental group. These proteins were electrophoresed on SDS-Polyacrylamide gels (8-15%), and electrically transferred to a nitrocellulose membrane. The membrane was reacted with primary antibodies [pro PARP (1:1000), cleaved PARP (1:2000), cleaved caspase-3 (1:1000), cleaved caspase-7 (1:1000), β-actin (1:5000)] diluted in 5% bovine serum albumin (BSA) at 4° C. for 24 hours, followed by a secondary antibody, horseradish peroxidase (HRP)-conjugated rabbit IgG (1:3000) for 2 hours at room temperature. The signal intensity of the above proteins was checked by color development using an Enhanced Chemiluminescence Kit and x-ray film.

[5] = tested on: BT474 breast cancer cell line; experiment: Flow cytometry DNA content (PI), cell cycle arrest and cell death, BT474; assay type: cell-based; settings: BT474, 5 and 10 μM, 72 hours, flow cytometer
Method: as §2, §3

leukemia cell line HL-60 = experiment: MTS cell viability assay in HL-60; assay type: cell-based; settings: HL-60, 0.1-20 μM, 72 hours
Method: (§4) Specifically, cells were attached to 96 well plates for 24 hours, and then treated with the indazole derivatives for 72 hours. Thereafter, the cells were chromogenized with MTS for 4 hours, and the absorbance was measured at 490 nm using a Spectramax Plus384 microplate analyzer. The significance between the control group and the experimental group was verified using an unpaired Students t-test (*p<0.01; DMSO control vs indazole series).
(§5) In addition to the breast cancer cell line, a leukemia cell line HL-60, a liver cancer cell line HepG2, a colorectal cancer cell line HCT116, a prostate cancer cell line Du145, an ovarian cancer cell line SKOV3, and non-small cell lung cancer cell lines NCI-H1299 and A549 were treated with compound 11k (formula 1-7) at concentrations of 0 (DMSO), 0.1, 0.5, 1, 2, 5, 10, and 20 μM, respectively, for 72 hours, and then cell viability was measured using the MTS assay technique as explained by the description of Experimental Example 1. The significance between the control group and the experimental group was verified using an unpaired Students t-test (*p<0.01; DMSO control vs compound 11k).

[6] = tested on: ovarian cancer cell line SKOV3; experiment: MTS cell viability assay in SKOV3; assay type: cell-based; settings: SKOV3, 0.1-20 μM, 72 hours
Method: as §4, §5

[7] = Toxicity in JIMT-1 xenograft mice, combination with paclitaxel (body weight, AST, ALT, BUN); assay type: in vivo, Balb/c nude mice; settings: combination study

SMILES | tumor size (visual inspection) [1] | tumor volume [1] | tumor weight [1] | body weight [2] | G2/M phase of the cell cycle [3] | cell death (Sub-G1 population) [3] | IC50 (BT474 cell line) [µM] | cleaved-PARP (89 kDa) [4] | amounts of cleaved caspase-3 and cleaved caspase-7 [4] | G2/M phase of the cell cycle [5] | cell death (Sub-G1 population) [5] | cell viability (leukemia cell line HL-60) | cell viability [6] | AST and ALT levels, BUN assay ([7]; blood of the mouse model) | body weight [7]
COCCn1nc(NC(=O)c2ccc3c(c2OC)C=CC(C)(C)O3)c2ccccc21 [compound 18c, 5-Methoxy-N-(1-(2-methoxyethyl)-1H-indazol-3-yl)-2,2-dimethyl-2H-chromene-6-carboxamide] | reduced by more than half | significantly reduced | significantly reduced | maintained | arrested the G2/M phase | significantly induced cell death | 4.98 | increase | significantly increased | arrested the G2/M phase | significantly induced cell death |  |  |  | 
COc1c(C(=O)Nc2ccc3c(C)nn(CCC4CCN(C)CC4)c3c2)ccc2c1C=CC(C)(C)O2 [compound 11k, 5-Methoxy-2,2-dimethyl-N-(3-methyl-1-(2-(1-methylpiperidin-4-yl)ethyl)-1H-indazol-6-yl)-2H-chromene-6-carboxamide] | reduced by more than half | significantly reduced | significantly reduced | maintained | arrested the G2/M phase | significantly induced cell death | 8.48 | increase | significantly increased | arrested the G2/M phase | significantly induced cell death | effective in inhibiting cell viability | effective in inhibiting cell viability | levels similar to those of the control group | remained unchanged
